Experimental data: ChEMBL document CHEMBL1141946, “Inhibitors of phenylethanolamine N-methyltransferase devoid of alpha2-adrenoceptor affinity” (Bioorg Med Chem Lett, 2005)

Molecular target: T1, Adrenergic receptor alpha-2 (Homo sapiens, UniProt P08913+P18825+P18089)
T1 sequence (P08913 whole entry): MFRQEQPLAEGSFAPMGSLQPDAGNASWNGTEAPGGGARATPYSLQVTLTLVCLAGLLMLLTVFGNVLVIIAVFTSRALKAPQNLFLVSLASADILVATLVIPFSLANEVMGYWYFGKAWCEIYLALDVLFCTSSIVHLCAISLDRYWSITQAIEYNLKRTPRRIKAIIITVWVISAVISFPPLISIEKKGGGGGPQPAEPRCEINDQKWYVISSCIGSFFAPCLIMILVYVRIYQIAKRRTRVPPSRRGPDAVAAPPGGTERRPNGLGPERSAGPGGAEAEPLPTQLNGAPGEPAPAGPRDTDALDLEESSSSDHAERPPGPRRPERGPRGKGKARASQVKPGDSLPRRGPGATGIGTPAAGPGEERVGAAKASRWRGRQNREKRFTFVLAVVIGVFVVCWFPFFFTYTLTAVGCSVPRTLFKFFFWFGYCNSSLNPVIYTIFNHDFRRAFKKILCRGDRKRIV
T1 sequence (P18825 whole entry): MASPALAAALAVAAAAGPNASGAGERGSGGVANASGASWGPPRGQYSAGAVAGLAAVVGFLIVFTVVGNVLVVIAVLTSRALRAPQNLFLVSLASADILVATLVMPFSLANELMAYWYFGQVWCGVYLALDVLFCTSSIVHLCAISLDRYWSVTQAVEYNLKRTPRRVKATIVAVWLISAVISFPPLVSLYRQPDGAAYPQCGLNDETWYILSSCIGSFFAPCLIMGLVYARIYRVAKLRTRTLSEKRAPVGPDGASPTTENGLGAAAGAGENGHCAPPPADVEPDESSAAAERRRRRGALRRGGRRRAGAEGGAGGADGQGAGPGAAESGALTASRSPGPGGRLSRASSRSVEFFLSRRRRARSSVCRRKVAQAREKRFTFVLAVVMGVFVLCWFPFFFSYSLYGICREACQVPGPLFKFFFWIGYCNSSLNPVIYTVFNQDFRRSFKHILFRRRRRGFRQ
T1 sequence (P18089 whole entry): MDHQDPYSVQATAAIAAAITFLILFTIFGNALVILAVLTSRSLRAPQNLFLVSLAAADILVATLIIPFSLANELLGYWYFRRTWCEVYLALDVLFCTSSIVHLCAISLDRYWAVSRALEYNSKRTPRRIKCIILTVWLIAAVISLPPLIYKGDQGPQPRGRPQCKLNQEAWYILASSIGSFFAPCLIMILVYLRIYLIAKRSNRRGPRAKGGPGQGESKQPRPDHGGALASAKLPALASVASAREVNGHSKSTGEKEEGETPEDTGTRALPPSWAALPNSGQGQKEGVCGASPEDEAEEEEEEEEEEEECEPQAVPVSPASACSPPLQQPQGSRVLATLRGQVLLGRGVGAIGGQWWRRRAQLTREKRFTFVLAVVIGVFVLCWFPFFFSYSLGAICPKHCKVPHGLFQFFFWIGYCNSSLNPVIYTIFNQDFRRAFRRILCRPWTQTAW
Test: Displacement of [3H]clonidine from Adrenergic alpha-2 receptor
Type: protein assay

Compound | Ki [µM] | Ki (read-out: Ki) [µM]
CS(=O)(=O)c1ccc2c(c1)CNC(C(F)(F)F)C2 (racemic) | 3900 | 
CCNS(=O)(=O)c1ccc2c(c1)CNC(C(F)(F)F)C2 (racemic) | > 1000 | 
NS(=O)(=O)c1ccc2c(c1)CNC(CO)C2 (centres undefined) | 1400 | 
Clc1ccc2c(c1Cl)CNCC2 | 0.021 | 
FC(F)(F)C1Cc2ccccc2CN1 (centres undefined) | 400 | 
CC(C)C1Cc2ccc(Br)cc2CN1 (centres undefined) | 3.9 | 
CCC1Cc2ccc([N+](=O)[O-])cc2CN1 (racemic) | 28 | 
CC(C)C1Cc2ccc([N+](=O)[O-])cc2CN1 (racemic) | 36 | 
NS(=O)(=O)c1ccc2c(c1)CNCC2 |  | 100
CC1Cc2ccc(Br)cc2CN1 (racemic) | 1.1 | 
Ic1ccc2c(c1)CNCC2 | 0.22 | 
CCC1Cc2ccc(Br)cc2CN1 (racemic) | 1.2 | 

Now from value to compound, other results behind:

Ki [µM] | Compound | Ki (read-out: Ki) [µM]
> 1000 | FC(F)(F)C1Cc2ccc(Cl)cc2CN1 (racemic) | 
> 1000 | FC(F)(F)C1Cc2ccc(Br)cc2CN1 (racemic) | 
2900 | N#Cc1ccc2c(c1)CNC(C(F)(F)F)C2 (racemic) | 
1400 | O=[N+]([O-])c1ccc2c(c1)CNC(C(F)(F)F)C2 (racemic) | 
> 1000 | FC(F)(F)c1ccc2c(c1)CNC(C(F)(F)F)C2 (racemic) | 
> 1000 | NS(=O)(=O)c1ccc2c(c1)CNC(C(F)(F)F)C2 (racemic) | 
> 1000 | FC(F)(F)C1Cc2ccc(I)cc2CN1 (racemic) | 
